In data set [1] the target is T1, cloned human 5-HT2C receptor (Homo sapiens, UniProt P28335).
T1 construct: purchased Euroscreen; host or cells: CHO-K1 cells
T1 sequence (P28335 33-458): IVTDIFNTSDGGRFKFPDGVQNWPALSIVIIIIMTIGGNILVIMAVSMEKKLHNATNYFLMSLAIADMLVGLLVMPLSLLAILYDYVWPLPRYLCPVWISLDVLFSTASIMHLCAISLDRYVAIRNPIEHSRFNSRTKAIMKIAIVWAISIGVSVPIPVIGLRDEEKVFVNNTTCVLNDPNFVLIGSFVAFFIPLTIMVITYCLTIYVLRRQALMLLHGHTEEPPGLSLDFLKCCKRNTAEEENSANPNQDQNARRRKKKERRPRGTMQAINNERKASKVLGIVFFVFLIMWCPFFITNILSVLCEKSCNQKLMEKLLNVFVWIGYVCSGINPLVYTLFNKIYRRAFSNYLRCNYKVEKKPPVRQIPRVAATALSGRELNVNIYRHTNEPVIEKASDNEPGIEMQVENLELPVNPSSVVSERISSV
In words: Human 5-HT2C receptor binding assay ([3H]mesulergine, CHO-K1 membranes). The following applies: displacement of [3H]mesulergine (1 nM), read-out: 5-HT2C pKi (converted). The method, then:
(§1) The binding affinity of ligands for human 5-HT2A and 5-HT2C receptors was determined using the following assay.
Membrane preparations from CHO-K1 cells expressing the cloned human 5-HT2C receptor were obtained (Euroscreen). The membranes were thawed rapidly and diluted in assay buffer containing Tris-HCl (50 mM, pH 7.7), ascorbic acid (0.1%) and pargyline (10 μM). The membranes were resuspended by homogenisation, prior to adding 6 μg of membranes to assay wells containing [^3H] mesulergine (1 nM), assay buffer (50 mM Tris at pH 7.7 and 0.1% ascorbic acid) containing pargyline (10 μM), and test compounds (1×10^−10 to 1×10^−4M). Non specific binding was determined in the presence of 100 μM mianserin. After 30 minutes incubation at 37° C., the assay mixture was filtered through a combination of GF-C and GF-B filters, pre-soaked in 1% bovine serum albumin, using a Brandel cell harvester, and were washed three times using ice cold Tris-HCl buffer (50 mM). Radioactivity retained on the filters was determined by liquid scintillation counting. For each test compound, the concentration that inhibited binding of [3H]mesulergine by 50% was determined using curve fitting software (Prism). Kd values (concentration of mesulergine required to occupy 50% of the receptor binding sites at equlibrium) determined from saturation binding studies were then used to calculate inhibition dissociation constants (Ki) using the following equation: […]
Background: Displacement assays read how much labelled ligand stays bound in the presence of the test substance.

The target of data set [2] is T2, human cloned 5-HT2B receptors (Homo sapiens, UniProt P41595).
T2 construct: expressed in transfected cells; host or cells: CHO-K1 cells
T2 sequence (P41595 whole entry): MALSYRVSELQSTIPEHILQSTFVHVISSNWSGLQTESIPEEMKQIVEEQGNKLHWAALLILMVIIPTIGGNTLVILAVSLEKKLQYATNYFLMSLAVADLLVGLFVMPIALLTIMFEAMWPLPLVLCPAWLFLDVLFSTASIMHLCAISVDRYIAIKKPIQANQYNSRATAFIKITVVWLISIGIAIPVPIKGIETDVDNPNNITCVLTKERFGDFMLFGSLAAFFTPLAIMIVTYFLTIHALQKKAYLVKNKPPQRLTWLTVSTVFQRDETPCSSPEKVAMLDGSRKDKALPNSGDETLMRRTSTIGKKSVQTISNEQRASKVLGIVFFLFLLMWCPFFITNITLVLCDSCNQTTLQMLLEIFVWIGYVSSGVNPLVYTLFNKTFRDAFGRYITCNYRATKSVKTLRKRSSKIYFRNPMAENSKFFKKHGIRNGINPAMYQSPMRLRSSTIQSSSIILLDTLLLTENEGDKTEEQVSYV
The data set can be described thus: Human cloned 5-HT2B receptor binding assay ([3H]LSD, CHO-K1 membranes). The following applies: displacement of [3H]LSD (1 nM), read-out: 5-HT2B pKi (converted). The method, then:
The binding affinity of the compounds for human cloned 5-HT2B receptors was determined using the following assay.
CHO-K1 cells expressing cloned 5-HT2B receptor were maintained in Ultra-CHO medium containing 400 μg/ml of G418, 100 U/ml penicillin, 100 μg/ml streptomycin, 2.5 μg/ml fungizone and 1% foetal bovine serum, in 95/5% O2/CO2 at 37° C. The cells were harvested using 0.25% trypsin and were centrifuged at 800 rpm for 8 minutes. The cells were homogenised in 50 mM HEPES buffer containing 1 mM disodium EDTA and 1 mM PMSF at pH 7.4, using a Dounce homogeniser (20 strokes). The homogenate was centrifuged at 2280 rpm (1000 g) and 4° C. for 10 minutes, after which the supernatant was removed by decanting. The pellet was re-homogenised as above, and the resulting supernatant removed and combined with that already obtained. The supernatant solution was then centrifuged at 18300 rpm (40000 g) for 10 minutes at 4° C. using a Sorvall centrifuge. The supernatant was removed, and the pellet was re-suspended in 50 mM buffer at pH 7.4 using a Ultra-turrax T25 Polytron, before centrifugation again at 40000 g as above. This wash procedure was repeated, after which the membrane preparation was stored at a concentration of 1 mg/ml at −80° C. until use.
The membranes were thawed rapidly and diluted in assay buffer containing Tris-HCl (50 mM, pH 7.4), ascorbic acid (0.1%) and calcium chloride (4 mM). The membranes were homogenised to resuspend them, prior to adding 10 or 15 μg of membranes to assay wells containing [^3H]LSD (1 nM), assay buffer (50 mM Tris, 4 mM calcium chloride and 0.1% ascorbic acid) containing pargyline (10 μM), and the test compounds (1×10^−10 to 1×10^−4M). Non specific binding was determined in the presence of 100 μM 5-HT. After 30 minutes incubation at 37° C., the assay mixture was filtered through a combination of GF-C and GF-B filters, pre-soaked in 1% polyethyleneimine, using a Brandel cell harvester, and were washed three times using 50 mM Tris-HCl. Radioactivity retained on the filters was determined by liquid scintillation counting. For each test compound, the concentration that inhibited binding of [3H]LSD by 50% was determined using curve fitting software (Prism). Kd values (concentration of LSD required to occupy 50% of the receptor binding sites at equilibrium) determined from saturation binding studies were then used to calculate inhibition dissociation constants (Ki) using the following equation: […]
This approach follows that set out in Kenakin, T.P. Pharmacologic analysis of drug-receptor interaction. Raven Press, New York, 2nd Edition.

For data set [3], the target named is T3, cloned human 5-HT2A receptor (Homo sapiens, UniProt P28223).
T3 construct: purchased Euroscreen; host or cells: CHO-K1 cells
T3 sequence (P28223 whole entry): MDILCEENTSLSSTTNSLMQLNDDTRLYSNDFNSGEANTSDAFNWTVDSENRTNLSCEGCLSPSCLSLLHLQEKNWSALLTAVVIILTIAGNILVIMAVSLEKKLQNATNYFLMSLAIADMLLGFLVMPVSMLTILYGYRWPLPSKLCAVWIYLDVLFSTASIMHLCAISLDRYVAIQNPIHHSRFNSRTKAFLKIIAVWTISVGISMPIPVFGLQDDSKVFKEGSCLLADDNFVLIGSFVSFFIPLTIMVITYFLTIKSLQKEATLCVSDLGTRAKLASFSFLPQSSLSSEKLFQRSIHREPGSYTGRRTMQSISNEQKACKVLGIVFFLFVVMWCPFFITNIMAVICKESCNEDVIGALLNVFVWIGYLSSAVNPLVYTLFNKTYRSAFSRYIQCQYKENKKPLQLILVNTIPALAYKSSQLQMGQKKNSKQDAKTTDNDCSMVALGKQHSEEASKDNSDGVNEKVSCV
In words: Human 5-HT2A receptor binding assay ([3H]ketanserin, CHO-K1 membranes). The settings on record: displacement of [3H]ketanserin (1 nM), read-out: 5-HT2A pKi (converted). As for the experimental part:
as §1
Membrane preparations from CHO-K1 cells expressing the cloned human 5-HT2A receptor were obtained (Euroscreen). The membranes were thawed rapidly and diluted in assay buffer containing Tris-HCl (50 mM, pH 7.7). The membranes were resuspended by homogenisation, prior to adding 15 μg of membranes to assay wells containing [3H] ketanserin (1 nM), assay buffer (50 mM Tris at pH 7.4) containing pargyline (10 μM), and test compounds (1×10^−10 to 1×10^−4M). Non specific binding was determined in the presence of 100 μM mianserin. After 15 minutes incubation at 37° C., the assay mixture was filtered through a combination of GF-C and GF-B filters, pre-soaked in 0.05% Brij, using a Brandel cell harvester, and were washed three times using ice cold Tris-HCl buffer (50 mM). Radioactivity retained on the filters was determined by liquid scintillation counting. For each test compound, the concentration that inhibited binding of [^3H]ketanserin by 50% was determined using curve fitting software (Prism). Kd values (concentration of ketanserin required to occupy 50% of the receptor binding sites at equlibrium) determined from saturation binding studies were then used to calculate inhibition dissociation constants (Ki) using the following equation: […]

In general, melting point refers to the temperature of the solid-liquid transition. For `CC(=O)Nc1nc(-c2cccc3ccccc23)co1` [Compound 9, 2-acetylamino-4-(naphth-1-yl)oxazole], the melting point fell in the range of 188 to 190 °C. Moreover, in data set [1], the Ki is more than 1000 nM. For the same compound, the Ki in data set [2] is less than 1000 nM. In addition, the Ki in data set [3] is more than 10 µM.

`CN(C)c1nc(-c2cccc3ccccc23)co1` [Compound 8, 2-dimethylamino-4-(naphth-1-yl)oxazole] had a melting point of 30 to 32 °C. Also, the Ki in data set [1] was more than 10000 nM. In data set [2], the Ki was less than 1000 nM. Further, the Ki in data set [3] is more than 10 µM.

As for `COc1ccc(-c2coc(N)n2)c2ccccc12` [Compound 11, 4-(4-methoxy-naphthalen-1-yl)-oxazol-2-ylamine], the Ki in data set [1] was more than 10000 nM; in data set [2], less than 100 nM; in data set [3], more than 10 µM.

Regarding `CCOc1ccc2ccccc2c1-c1coc(N)n1` [Compound 10, 4-(2-ethoxy-naphthalen-1-yl)-oxazol-2-ylamine], the Ki is more than 1000 nM in data set [1], less than 10 nM in data set [2] and more than 1 µM in data set [3].

In the case of `CC(=O)OCc1nc(N)oc1-c1cccc2ccccc12` [Compound 28, acetic acid 2-amino-5-naphthalen-1-yl-oxazol-4-ylmethyl ester], the Ki in data set [2] is less than 100 nM; in data set [3], more than 10 µM.

Take `Nc1nc(-c2c(O)ccc3ccccc23)co1` [Compound 22, 1-(2-amino-oxazol-4-yl)-naphthalen-2-ol]: the values for the Ki in data set [2] and in data set [3] were less than 100 nM and more than 1 µM, respectively.

Regarding `Cc1c(-c2coc(N)n2)sc2ccccc12` [Compound 13, 4-(3-methyl-benzo[b]thiophen-2-yl)-oxazol-2-ylamine], the Ki in data set [1] was more than 1000 nM; in data set [2], less than 1000 nM; in data set [3], more than 10 µM.

Consider `Cc1oc(N)nc1-c1cccc2ccccc12` [Compound 30, 5-Methyl-4-naphthalen-1-yl-oxazol-2-ylamine], for which the Ki in data set [2] is less than 100 nM; in data set [3] it was more than 10 µM.

Take `Nc1nc(-c2ccc3c(c2)OCCO3)co1` [Compound 14, 4-(2,3-dihydro-benzo[1,4]dioxin-6-yl)-oxazol-2-ylamine]: the Ki in data set [1] was more than 10000 nM; in data set [2], less than 1000 nM; in data set [3], more than 10 µM.

Turning to `N#Cc1ccc2cccc(-c3coc(N)n3)c2c1` [Compound 20, 4-(7-carbonitrile-naphthalen-1-yl)-oxazol-2-ylamine], the Ki is more than 10000 nM in data set [1], less than 10000 nM in data set [2] and more than 10 µM in data set [3].

For the compound `Nc1nc(CO)c(-c2cccc3ccccc23)o1` [Compound 29, (2-amino-5-naphthalen-1-yl-oxazol-4-yl)-methanol], the Ki in data set [1] is more than 1000 nM; in data set [2] it was less than 100 nM.

As for `COc1ccc2ccccc2c1-c1oc(N)nc1C` [Compound 26, 5-(2-methoxy-naphthalen-1-yl)-4-methyl-oxazol-2-ylamine], the values for the Ki in data set [2] and in data set [3] were less than 10 nM and more than 1 µM, respectively.

For the compound `COc1c(-c2coc(N)n2)ccc2ccccc12` [Compound 18, 4-(1-methoxy-naphthalen-2-yl)-oxazol-2-ylamine], the results for the Ki in data set [1], in data set [2] and in data set [3] were more than 10000 nM, less than 1000 nM and more than 10 µM, respectively.

As for `Nc1nc(-c2cccc3c(Br)cccc23)co1` [Compound 19, 4-(5-bromo-naphthalen-1-yl)-oxazol-2-ylamine], the Ki in data set [1] was more than 1000 nM; in data set [2], less than 10000 nM; in data set [3] it was more than 10 µM.

For `COC(=O)COc1ccc2ccccc2c1-c1coc(N)n1` [Compound 23, [1-(2-amino-oxazol-4-yl)-naphthalen-2-yloxy]-acetic acid methyl ester], the Ki in data set [1] is more than 10000 nM; in data set [2] it was less than 1000 nM.

For `Nc1nc(-c2c(OCc3ccccc3)ccc3ccccc23)co1` [Compound 12, 4-(2-benzyloxy-naphthalen-1-yl)-oxazol-2-ylamine], the Ki in data set [2] was less than 1000 nM.

`Nc1nc(-c2cccc3ccc(Br)cc23)co1` [Compound 5, 2-amino-4-(7′-bromonaphth-1-yl)oxazole] yielded a melting point of 189 to 190 °C. In addition, in data set [1], the Ki was more than 1000 nM. Moreover, in data set [2], the Ki is less than 100 nM. Moreover, the Ki in data set [3] was more than 1 µM.

`Nc1nc(-c2ccc(F)c3ccccc23)co1` [Compound 4, 2-amino-4-(4′-fluoronaphth-1-yl)oxazole] had a melting point of 171 to 174 °C. Besides, the Ki in data set [1] was more than 1000 nM. The Ki in data set [2] was less than 100 nM. In data set [3], the Ki is more than 1 µM.

For `N#Cc1cccc2c(-c3coc(N)n3)cccc12` [Compound 21, 4-(5-carbonitrile-naphthalen-1-yl)-oxazol-2-ylamine], the Ki in data set [1] was more than 1000 nM; in data set [2], less than 10000 nM; in data set [3], more than 10 µM.

For `Nc1nc(-c2cccc3sccc23)co1` [Compound 15, 4-benzo[b]thiophen-4-yl-oxazol-2-ylamine], the results for the Ki in data set [1], in data set [2] and in data set [3] were more than 1000 nM, less than 1000 nM and more than 1 µM, respectively.

As for `NC(=O)c1ccc2cccc(-c3coc(N)n3)c2c1` [Compound 24, 8-(2-amino-oxazol-4-yl)-naphthalene-2-carboxylic acid amide], the Ki in data set [1] is more than 10000 nM; in data set [2] it was less than 10000 nM; in data set [3], more than 10 µM.

The values above are taken from patent US7429607B2, “5-HT2B receptor antagonists” (Asterand UK Limited, priority 2002, dated 2008).
